Laboratory results as given in patent publication US11173166B2, “Composition and uses thereof” (BH Biotech Pty Ltd, priority 2017, dated 2021).

Legend:
NLRP3 inflammasome = NLRP3 inflammasome (Homo sapiens, UniProt Q96P20); experiment: THP-1 NLRP3 inflammasome assay (LPS priming plus ATP stimulation, IL-1β ELISA), with Chou-Talalay CI analysis; conditions: for inhibition of NLRP3 inflammasome activation (IL-1β production), in words: single agent, THP-1 primed with LPS, stimulated with ATP
Experimental: Absorbance data obtained from the ELISA assays was transformed into relative inhibition using Microsoft Excel. Dose-response curves and statistical analyses were generated using GraphPad Prism software. To generate dose-response curves, first the dose was transformed into Log10, then curves were generated using the non-linear regression option log[inhibitor] vs response-variable slope (four parameter). Statistical comparisons between treatment and control groups were performed using One Way ANOVA with GraphPad Prism statistical software.
The latest version of CompuSyn software was used to analyse data and generate CI and graphical representations of drug-drug interactions.
Monocytes were first primed for three hours with 100 nM LPS, then stimulated with ATP.

[1] = Solubility behaviour in the cell-based assay system / aqueous solution
Text: The interaction between ashwagandha and turmeric plant extracts was studied. […] To overcome this experimental limitation low doses at approximately the Fa 0.2 range were focused on, and the mean relative inhibition values of the single extract versus the ashwagandha plus turmeric plant extract combination were compared.
The combination of turmeric and pepper (Piper nigrum) plant extracts was investigated.

Chain of NLRP3 inflammasome (Q96P20 whole entry): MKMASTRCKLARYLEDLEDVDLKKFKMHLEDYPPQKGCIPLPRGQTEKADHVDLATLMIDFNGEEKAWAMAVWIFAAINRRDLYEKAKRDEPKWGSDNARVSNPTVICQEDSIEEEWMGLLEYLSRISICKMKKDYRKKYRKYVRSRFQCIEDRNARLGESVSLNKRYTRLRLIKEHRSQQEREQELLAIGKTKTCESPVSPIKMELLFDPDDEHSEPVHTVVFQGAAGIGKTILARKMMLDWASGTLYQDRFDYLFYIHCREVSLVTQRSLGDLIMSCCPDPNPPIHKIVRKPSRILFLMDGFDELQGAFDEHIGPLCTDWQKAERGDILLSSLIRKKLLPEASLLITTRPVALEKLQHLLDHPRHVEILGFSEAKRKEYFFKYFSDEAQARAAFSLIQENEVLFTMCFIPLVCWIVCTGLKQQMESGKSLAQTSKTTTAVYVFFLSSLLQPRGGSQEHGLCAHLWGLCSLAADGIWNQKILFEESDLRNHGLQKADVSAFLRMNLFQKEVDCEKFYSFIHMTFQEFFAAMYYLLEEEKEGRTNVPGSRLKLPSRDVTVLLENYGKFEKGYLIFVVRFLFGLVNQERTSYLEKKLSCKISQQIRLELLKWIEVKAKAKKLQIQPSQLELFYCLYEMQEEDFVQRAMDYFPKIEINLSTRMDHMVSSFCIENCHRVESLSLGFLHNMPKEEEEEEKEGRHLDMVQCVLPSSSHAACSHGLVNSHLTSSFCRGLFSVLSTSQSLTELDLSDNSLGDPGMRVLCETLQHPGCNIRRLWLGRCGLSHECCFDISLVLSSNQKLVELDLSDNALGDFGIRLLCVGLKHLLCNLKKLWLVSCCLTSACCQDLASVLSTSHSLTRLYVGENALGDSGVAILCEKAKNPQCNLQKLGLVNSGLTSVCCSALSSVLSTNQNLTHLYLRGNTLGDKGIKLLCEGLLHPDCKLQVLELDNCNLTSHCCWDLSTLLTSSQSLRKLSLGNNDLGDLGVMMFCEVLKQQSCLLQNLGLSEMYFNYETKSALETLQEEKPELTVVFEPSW

SMILES | inflammasome inhibition, highest observed (NLRP3 inflammasome; limited because compound came out of solution at higher doses) | solubility behaviour [1] | efficacy relative to vehicle control (ANOVA) (NLRP3 inflammasome; low dose: below Fa 0.4 for pure compounds, approximately Fa 0.2 for extracts) | inhibition of NLRP3 inflammasome activation (IL-1β production), in words (NLRP3 inflammasome) | interaction in drug combination experiments (polynonogram) (NLRP3 inflammasome; combined with withaferin A, curcumin and piperine)
O=C(/C=C/C=C/c1ccc2c(c1)OCO2)N1CCCCC1 [piperine] | ≤ 35% | came out of solution at the higher doses | – | – | –
CC1=C(CO)C(=O)O[C@@H]([C@@H](C)[C@H]2CC[C@H]3[C@@H]4C[C@H]5O[C@]56[C@@H](O)C=CC(=O)[C@]6(C)[C@H]4CC[C@]23C)C1 [withaferin A] | – | – | efficacious relative to vehicle control | inhibit NLRP3 inflammasome activity | –
COc1cc(C2Oc3cc([C@H]4Oc5cc(O)cc(O)c5C(=O)[C@@H]4O)ccc3OC2CO)ccc1O (stereo partly drawn) [silybin] | – | – | – | effectively inhibiting inflammation | striking antagonism
